The results in this text go back to US10647700B2, “EZH2 inhibitor and use thereof” (TARAPEUTICS SCIENCE INC., priority 2017, dated 2020).

The assay has as its target EZH2 (Homo sapiens (Human), UniProt Q15910). In words: E-cadherin promoter luciferase reporter gene primary screening in 293T cells. The conditions noted are these: 293T cells treated for 24 hours, Dual-Glo luciferase; for 1 μM relative fluorescence intensity: compound 1 μM; for 10 μM relative fluorescence intensity: compound 10 μM; for 3 μM relative fluorescence intensity: compound 3 μM. Type of assay: cell-based. From the text: EZH2 suppresses the expression of downstream E-cadherin, and upon EZH2 suppression, expression of E-cadherin will increase. Based on such principle, a reporter gene expression vector was constructed using luciferase.
The amplified fragments after PCR and the PGL4.1 vector (purchased from TAKARA, Japan) were respectively subjected to enzyme digestion with SacI and BglII (purchased from TAKARA, Japan), and then purified with PCR cleanup kit (Axygen PCR cleanup kit). Subsequently, the purified and enzyme-digested PCR products was ligated to the purified and enzyme-digested PGL4.1 vector using ligase solution I (DNA Ligation Kit Ver.2.1, purchased from TAKARA, Japan), and subjected to transformation. Single clones were then screened out and subjected to sequencing, and the obtained positive plasmid containing promoter fragments of Ecadherin was named E-cadherin RE-PGL4.1.
Meanwhile, a Renilla fluorescent vector was constructed using PCDNA4.1 (purchased from Thermofisher, USA) as the template to amplify the fragment of CMV promoter. After enzymatic digestion of the amplified CMV sequences and pGL4.70 vector (purchased from Promega, USA) with KpnI and XhoI (purchased from Promega, USA), purification was conducted with PCR cleanup kit (Axygen PCR cleanup kit). Then the enzyme-digested PCR product was ligated to the enzyme-digested PGL4.70 vector using ligase solution I (DNA Ligation Kit Ver.2.1, purchased from TAKARA, Japan) and the resultant was subjected to transformation. Subsequently single clones were screened and subjected to sequencing, and the obtained plasmid that contained CMV sequence was named as Plasmid Renilla luciferase-pGL4.70. Said plasmid utilized CMV promoter to achieve high expression of Renilla luciferase, which served as the control fluorescence for the primary screening system.
The cells were firstly added with 20 μL Dual-Glo® Luciferase Assay Reagent, then incubated under room temperature for 10 minutes, and read on microplate reader Spectramax i3 (Molecular Devices, USA) to obtain the data of primary screening, which is shown in Table 1.

Chain of EZH2 (Q15910 whole entry, the tested form may be a part): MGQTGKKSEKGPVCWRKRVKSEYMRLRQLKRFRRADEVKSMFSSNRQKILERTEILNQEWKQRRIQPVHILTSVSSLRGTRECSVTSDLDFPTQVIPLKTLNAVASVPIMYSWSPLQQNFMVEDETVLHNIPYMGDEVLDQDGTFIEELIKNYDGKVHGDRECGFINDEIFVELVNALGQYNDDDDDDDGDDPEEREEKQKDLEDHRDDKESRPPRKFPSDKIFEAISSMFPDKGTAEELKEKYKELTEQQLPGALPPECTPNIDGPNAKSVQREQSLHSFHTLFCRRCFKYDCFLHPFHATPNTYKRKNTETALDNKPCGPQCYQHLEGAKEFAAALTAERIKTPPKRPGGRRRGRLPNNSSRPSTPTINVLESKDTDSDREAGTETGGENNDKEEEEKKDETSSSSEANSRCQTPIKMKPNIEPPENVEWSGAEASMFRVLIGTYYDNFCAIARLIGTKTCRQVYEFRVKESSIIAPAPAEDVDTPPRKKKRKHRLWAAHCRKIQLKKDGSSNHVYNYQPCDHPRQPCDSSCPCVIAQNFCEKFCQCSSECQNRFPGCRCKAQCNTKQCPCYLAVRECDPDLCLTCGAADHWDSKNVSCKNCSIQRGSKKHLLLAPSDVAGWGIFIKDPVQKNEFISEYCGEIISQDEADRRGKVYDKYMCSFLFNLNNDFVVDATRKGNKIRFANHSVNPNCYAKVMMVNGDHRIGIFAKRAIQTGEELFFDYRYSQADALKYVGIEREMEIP
Chain of EZH2 (O75530 whole entry partner, the tested form may be a part): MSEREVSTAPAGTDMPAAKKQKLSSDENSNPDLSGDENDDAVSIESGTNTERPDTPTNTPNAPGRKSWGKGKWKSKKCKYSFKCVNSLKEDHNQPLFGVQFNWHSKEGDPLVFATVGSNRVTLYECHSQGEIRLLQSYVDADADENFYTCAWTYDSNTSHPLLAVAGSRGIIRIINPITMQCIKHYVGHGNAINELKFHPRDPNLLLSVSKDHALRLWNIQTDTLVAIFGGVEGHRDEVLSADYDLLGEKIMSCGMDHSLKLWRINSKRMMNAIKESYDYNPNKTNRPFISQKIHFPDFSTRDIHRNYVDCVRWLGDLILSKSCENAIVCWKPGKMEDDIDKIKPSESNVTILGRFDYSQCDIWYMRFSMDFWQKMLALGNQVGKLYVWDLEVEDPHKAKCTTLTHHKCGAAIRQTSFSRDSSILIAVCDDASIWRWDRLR
Chain of EZH2 (Q15022 whole entry partner, the tested form may be a part): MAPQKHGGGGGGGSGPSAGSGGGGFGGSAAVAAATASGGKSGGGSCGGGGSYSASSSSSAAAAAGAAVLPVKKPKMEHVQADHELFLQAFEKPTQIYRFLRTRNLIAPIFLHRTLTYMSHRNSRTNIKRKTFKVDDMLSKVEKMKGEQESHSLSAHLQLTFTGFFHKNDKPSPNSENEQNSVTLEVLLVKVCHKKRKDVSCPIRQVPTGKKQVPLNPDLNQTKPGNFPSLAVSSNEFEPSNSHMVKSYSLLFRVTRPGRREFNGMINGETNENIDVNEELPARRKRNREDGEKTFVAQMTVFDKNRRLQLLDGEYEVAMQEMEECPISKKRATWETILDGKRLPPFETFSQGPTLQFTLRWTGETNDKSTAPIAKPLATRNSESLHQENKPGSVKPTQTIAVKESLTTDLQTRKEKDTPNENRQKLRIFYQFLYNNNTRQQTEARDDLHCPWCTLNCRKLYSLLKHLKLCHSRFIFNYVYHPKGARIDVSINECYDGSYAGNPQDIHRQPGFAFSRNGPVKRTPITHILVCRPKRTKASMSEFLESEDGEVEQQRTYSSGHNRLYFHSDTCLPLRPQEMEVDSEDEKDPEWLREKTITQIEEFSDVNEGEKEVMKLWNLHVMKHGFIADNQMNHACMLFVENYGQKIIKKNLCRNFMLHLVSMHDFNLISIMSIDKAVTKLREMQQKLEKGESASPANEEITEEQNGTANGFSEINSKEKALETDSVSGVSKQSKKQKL
Chain of EZH2 (Q09028 whole entry partner, the tested form may be a part): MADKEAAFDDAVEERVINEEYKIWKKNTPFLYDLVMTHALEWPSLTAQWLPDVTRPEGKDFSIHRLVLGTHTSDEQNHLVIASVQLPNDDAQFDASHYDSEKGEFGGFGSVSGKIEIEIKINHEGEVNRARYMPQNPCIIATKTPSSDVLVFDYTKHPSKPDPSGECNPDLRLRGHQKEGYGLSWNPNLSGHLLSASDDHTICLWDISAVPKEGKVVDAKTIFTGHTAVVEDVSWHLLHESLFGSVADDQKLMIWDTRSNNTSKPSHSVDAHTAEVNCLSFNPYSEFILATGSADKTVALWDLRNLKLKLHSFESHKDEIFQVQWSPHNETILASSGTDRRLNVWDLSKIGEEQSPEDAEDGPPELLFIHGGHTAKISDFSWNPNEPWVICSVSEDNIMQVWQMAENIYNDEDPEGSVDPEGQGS

On to `CCN(C(=O)C1CCCC1)c1cc(-c2ccc(N3CCN(CC4CC4)CC3)nc2)cc(C(=O)NCc2c(C)cc(C)[nH]c2=O)c1C` [Compound 15, 5-(6-(4-(cyclopropylmethyl)piperazin-1-yl)pyridin-3-yl)-N-((4,6-dimethyl-2-oxo-1,2-dihydropyridin-3-yl)methyl)-3-(N-ethylcyclopentanecarboxamido)-2-methylbenzamide], for which the “1 μM relative fluorescence intensity” value was determined as 262.61 and the “10 μM relative fluorescence intensity” value is given as 335.61.
For the compound `CCN(C(=O)C1CCCC1)c1cc(-c2ccnc(N3CCN(C)CC3)c2)cc(C(=O)NCc2c(C)cc(C)[nH]c2=O)c1C` [Compound 17, N-((4,6-dimethyl-2-oxo-1,2-dihydropyridin-3-yl)methyl)-3-(N-ethylcyclopentanecarboxamido)-2-methyl-5-(2-(4-methylpiperazin-1-yl)pyridin-4-yl)benzamide], the “1 μM relative fluorescence intensity” value turned out to be 172, the “3 μM relative fluorescence intensity” value stood at 223 and the “10 μM relative fluorescence intensity” value turned out to be 303.
Consider `CCN(C(=O)C1CCCC1)c1cc(-c2ccc(N3CCN(C(C)C)CC3)nc2)cc(C(=O)NCc2c(C)cc(C)[nH]c2=O)c1C` [Compound 18, N-((4,6-dimethyl-2-oxo-1,2-dihydropyridin-3-yl)methyl)-3-(N-ethylcyclopentanecarboxamido)-5-(6-(4-isopropylpiperazin-1-yl)pyridin-3-yl)-2-methylbenzamide], for which the “1 μM relative fluorescence intensity” value is given as 289, the “3 μM relative fluorescence intensity” value was determined as 356 and the “10 μM relative fluorescence intensity” value was 423.
The matching figures for `CCN(C(=O)C1CCCC1)c1cc(-c2ccc(C#N)c(F)c2)cc(C(=O)NCc2c(C)cc(C)[nH]c2=O)c1C` [Compound 19, 4′-cyano-N-((4,6-dimethyl-2-oxo-1,2-dihydropyridin-3-yl)methyl)-5-(N-ethylcyclopentanecarboxamido)-3′-fluoro-4-methyl-[1,1′-diphenyl]-3-carboxamide]: 189, 228 and 310.
Consider `CCN(C(=O)C1CCCC1)c1cc(-c2ccc(C(=O)N3CCOCC3)cc2)cc(C(=O)NCc2c(C)cc(C)[nH]c2=O)c1C` [Compound 20, N-((4,6-dimethyl-2-oxo-1,2-dihydropyridin-3-yl)methyl)-5-(N-ethylcyclopentanecarboxamido)-4-methyl-4′-(morpholin-4-carbonyl)-[1,1′-diphenyl]-3-carboxamide], for which the “1 μM relative fluorescence intensity” value is on record as 193, the “3 μM relative fluorescence intensity” value is 213 and the “10 μM relative fluorescence intensity” value is 227.
Consider `CCN(C(=O)C1CCCC1)c1cc(-c2ccc(N3CCOCC3)cc2)cc(C(=O)NCc2c(C)cc(C)[nH]c2=O)c1C` [Compound 21, N-((4,6-dimethyl-2-oxo-1,2-dihydropyridin-3-yl)methyl)-5-(N-ethylcyclopentanecarboxamido)-4-methyl-4′-morpholinyl-[1,1′-diphenyl]-3-carboxamide], for which the “1 μM relative fluorescence intensity” value was 170, the “3 μM relative fluorescence intensity” value is given as 225 and the “10 μM relative fluorescence intensity” value came out at 339.
As to `CCN(C(=O)C1CCCC1)c1cc(-c2ccc(CC(=O)N3CCOCC3)cc2)cc(C(=O)NCc2c(C)cc(C)[nH]c2=O)c1C` [Compound 22, N-((4,6-dimethyl-2-oxo-1,2-dihydropyridin-3-yl)methyl)-5-(N-ethylcyclopentanecarboxamido)-4-methyl-4′-(2-morpholinyl-2-oxoethyl)-[1,1′-diphenyl]-3-carboxamide], the “1 μM relative fluorescence intensity” value turned out to be 171, the “3 μM relative fluorescence intensity” value came to 194 and the “10 μM relative fluorescence intensity” value is 242.
The matching figures for `CCN1CCN(Cc2ccc(-c3cc(C(=O)NCc4c(C)cc(C)[nH]c4=O)c(C)c(N(CC)C(=O)C4CCCC4)c3)cc2)CC1` [Compound 23, N-((4,6-dimethyl-2-oxo-1,2-dihydropyridin-3-yl)methyl)-5-(N-ethylcyclopentanecarboxamido)-4′-((4-ethylpiperazin-1-yl)methyl)-4-methyl-[1,1′-diphenyl]-3-carboxamide]: 290, 346 and 343.
For `CCN1CCN(c2ccc(-c3cc(C(=O)NCc4c(C)cc(C)[nH]c4=O)c(C)c(N(CC)C(=O)C4CCCC4)c3)cc2)CC1` [Compound 27, N-((4,6-dimethyl-2-oxo-1,2-dihydropyridin-3-yl)methyl)-5-(N-ethylcyclopentanecarboxamido)-4′-(4-ethylpiperazin-1-yl)-4-methyl-[1,1′-diphenyl]-3-carboxamide], the “1 μM relative fluorescence intensity” value came to 204.86 and the “10 μM relative fluorescence intensity” value is recorded as 335.96.
The matching figures for `CCN(C(=O)C1CCCC1)c1cc(-c2ccc(NS(=O)(=O)C3CC3)cc2)cc(C(=O)NCc2c(C)cc(C)[nH]c2=O)c1C` [Compound 28, 4′-(cyclopropanesulfonamide)-N-((4,6-dimethyl-2-oxo-1,2-dihydropyridin-3-yl)methyl)-5-(N-ethylcyclopentanecarboxamido)-4-methyl-[1,1′-diphenyl]-3-carboxamide]: 163.93 and 345.23.
For `CCN(C(=O)C1CCCC1)c1cc(-c2ccc(OCCCN3CCOCC3)cc2)cc(C(=O)NCc2c(C)cc(C)[nH]c2=O)c1C` [Compound 30, N-((4,6-dimethyl-2-oxo-1,2-dihydropyridin-3-yl)methyl)-5-(N-ethylcyclopentanecarboxamido)-4-methyl-4′-(3-morpholinopropoxy)-[1,1′-diphenyl]-3-carboxamide], in that order: 253.44 and 231.21.
With `CCN(C(=O)C1CCCC1)c1cc(C(N)=O)cc(C(=O)NCc2c(C)cc(C)[nH]c2=O)c1C` [Compound 34, N^1-((4,6-dimethyl-2-oxo-1,2-dihydropyridin-3-yl)methyl)-5-(N-ethylcyclopentanecarboxamido)-6-methyl-isophthalamide], the “1 μM relative fluorescence intensity” value came out at 98.36 and the “10 μM relative fluorescence intensity” value turned out to be 109.72.
With `CCN(C(=O)C1CCCC1)c1cc(-c2ccc(CN3CCNC[C@H]3CO)cc2)cc(C(=O)NCc2c(C)cc(C)[nH]c2=O)c1C` [Compound 35], the “1 μM relative fluorescence intensity” value is 83.82 and the “10 μM relative fluorescence intensity” value stood at 123.19.
For `CCN(C(=O)C1CCCC1)c1cc(-c2ccc(N3CCN(C)CC3)nc2)cc(C(=O)NCc2c(C)cc(C)[nH]c2=O)c1C` [Compound 36, N-((4,6-dimethyl-2-oxo-1,2-dihydropyridin-3-yl)methyl)-3-(N-ethylcyclopentanecarboxamido)-2-methyl-5-(6-(4-methylpiperazin-1-yl)pyridin-3-yl)benzamide], in that order: 211.26 and 312.36.
In the case of `CCN(C(=O)C1CCCC1)c1cc(-c2ccc(N3CCC(N)CC3)nc2)cc(C(=O)NCc2c(C)cc(C)[nH]c2=O)c1C` [Compound 37, 5-(6-(4-aminopiperidin-1-yl)pyridin-3-yl)-N-((4,6-dimethyl-2-oxo-1,2-dihydropyridin-3-yl)methyl)-3-(N-ethylcyclopentanecarboxamido)-2-methylbenzamide], the “1 μM relative fluorescence intensity” value was 163.93 and the “10 μM relative fluorescence intensity” value was 345.23.
For `CCN(C(=O)C1CCCC1)c1cc(-c2ccc(Oc3ccccc3)cc2)cc(C(=O)NCc2c(C)cc(C)[nH]c2=O)c1C` [Compound 41, N-((4,6-dimethyl-2-oxo-1,2-dihydropyridin-3-yl)methyl)-5-(N-ethylcyclopentanecarboxamido)-4-methyl-4′-phenoxy-[1,1′-diphenyl]-3-carboxamide], in that order: 156.04 and 183.38.
As for `CCN(C(=O)C1CCCC1)c1cc(-c2ccc(OCCCN3CCOCC3)c(F)c2)cc(C(=O)NCc2c(C)cc(C)[nH]c2=O)c1C` [Compound 42, N-((4,6-dimethyl-2-oxo-1,2-dihydropyridin-3-yl)methyl)-5-(N-ethylcyclopentanecarboxamido)-3′-fluoro-4-methyl-4′-(3-morpholinopropoxy)-[1,1′-diphenyl]-3-carboxamide], the “1 μM relative fluorescence intensity” value is 179.84 and the “10 μM relative fluorescence intensity” value is reported as 234.50.
Consider `CCN(C(=O)C1CCCC1)c1cc(-c2ccc(C(C)=O)s2)cc(C(=O)NCc2c(C)cc(C)[nH]c2=O)c1C` [Compound 43, 5-(5-acetylthiophene-2-yl)-N-((4,6-dimethyl-2-oxo-1,2-dihydropyridin-3-yl)methyl)-3-(N-ethylcyclopentanecarboxamido)-2-methylbenzamide], for which the “1 μM relative fluorescence intensity” value came out at 147.30 and the “10 μM relative fluorescence intensity” value is on record as 235.05.
